Experimental data published in publication PMC8213057, “Targeting ALK2: An Open Science Approach to Developing Therapeutics for the Treatment of Diffuse Intrinsic Pontine Glioma” (Journal of Medicinal Chemistry, 2020).

Key:
[1] = target: T1, FMS (Homo sapiens, UniProt P07333); assay: 375-member kinase panel; format: biochemical; conditions: Run 1, Run 2; for % enzyme activity: 1 μM; for remaining activity at 1 µM: read-out: % enzyme activity, 1 μM
T1 construct: purchased Reaction Biology Corporation

[2] = target: T2, ASK1/MAP3K5 (Homo sapiens, UniProt Q99683); conditions: 1 μM; Run 1, Run 2
T2 sequence (Q99683 1-1374): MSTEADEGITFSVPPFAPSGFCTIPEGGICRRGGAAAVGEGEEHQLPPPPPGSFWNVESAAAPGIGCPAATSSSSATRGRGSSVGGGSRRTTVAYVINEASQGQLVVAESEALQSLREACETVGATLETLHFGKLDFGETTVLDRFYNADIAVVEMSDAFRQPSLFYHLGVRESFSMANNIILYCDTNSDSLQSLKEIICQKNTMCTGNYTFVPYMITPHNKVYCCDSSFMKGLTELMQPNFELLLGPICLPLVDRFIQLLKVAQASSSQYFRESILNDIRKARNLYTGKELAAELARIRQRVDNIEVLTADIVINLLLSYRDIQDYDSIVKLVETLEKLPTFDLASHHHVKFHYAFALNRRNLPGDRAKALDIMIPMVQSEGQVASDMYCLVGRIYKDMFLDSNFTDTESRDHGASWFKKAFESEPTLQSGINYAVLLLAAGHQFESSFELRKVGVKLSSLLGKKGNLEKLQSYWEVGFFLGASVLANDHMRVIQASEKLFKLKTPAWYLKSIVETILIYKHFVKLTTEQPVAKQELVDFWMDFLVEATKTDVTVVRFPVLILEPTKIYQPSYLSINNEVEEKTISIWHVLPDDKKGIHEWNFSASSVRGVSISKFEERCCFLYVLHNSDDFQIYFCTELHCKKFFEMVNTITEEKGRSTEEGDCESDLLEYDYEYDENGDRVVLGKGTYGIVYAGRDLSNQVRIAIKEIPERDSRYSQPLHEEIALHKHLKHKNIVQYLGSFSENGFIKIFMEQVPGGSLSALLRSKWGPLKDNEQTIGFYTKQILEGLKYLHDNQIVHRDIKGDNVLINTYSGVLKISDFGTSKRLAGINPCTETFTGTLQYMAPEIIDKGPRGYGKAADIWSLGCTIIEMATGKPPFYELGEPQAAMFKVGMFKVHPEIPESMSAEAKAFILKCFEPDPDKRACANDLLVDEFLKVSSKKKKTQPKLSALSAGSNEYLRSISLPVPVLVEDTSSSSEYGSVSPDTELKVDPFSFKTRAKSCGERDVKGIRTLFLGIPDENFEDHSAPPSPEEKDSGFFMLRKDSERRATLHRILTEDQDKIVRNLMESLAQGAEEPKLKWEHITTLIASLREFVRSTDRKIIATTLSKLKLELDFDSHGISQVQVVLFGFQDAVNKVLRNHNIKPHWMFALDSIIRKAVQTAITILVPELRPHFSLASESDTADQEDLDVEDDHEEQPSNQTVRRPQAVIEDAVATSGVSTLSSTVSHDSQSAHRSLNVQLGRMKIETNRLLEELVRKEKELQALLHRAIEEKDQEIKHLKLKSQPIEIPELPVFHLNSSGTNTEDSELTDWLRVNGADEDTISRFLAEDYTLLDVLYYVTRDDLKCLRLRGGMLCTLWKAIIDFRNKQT

[3] = target: CDK19/cyclin C (Homo sapiens, UniProt Q9BWU1); conditions: 1 μM; Run 1, Run 2
[4] = target: T3, LCK2/ICK (Homo sapiens, UniProt Q9UPZ9); conditions: 1 μM; Run 1, Run 2
T3 sequence (Q9UPZ9 1-632): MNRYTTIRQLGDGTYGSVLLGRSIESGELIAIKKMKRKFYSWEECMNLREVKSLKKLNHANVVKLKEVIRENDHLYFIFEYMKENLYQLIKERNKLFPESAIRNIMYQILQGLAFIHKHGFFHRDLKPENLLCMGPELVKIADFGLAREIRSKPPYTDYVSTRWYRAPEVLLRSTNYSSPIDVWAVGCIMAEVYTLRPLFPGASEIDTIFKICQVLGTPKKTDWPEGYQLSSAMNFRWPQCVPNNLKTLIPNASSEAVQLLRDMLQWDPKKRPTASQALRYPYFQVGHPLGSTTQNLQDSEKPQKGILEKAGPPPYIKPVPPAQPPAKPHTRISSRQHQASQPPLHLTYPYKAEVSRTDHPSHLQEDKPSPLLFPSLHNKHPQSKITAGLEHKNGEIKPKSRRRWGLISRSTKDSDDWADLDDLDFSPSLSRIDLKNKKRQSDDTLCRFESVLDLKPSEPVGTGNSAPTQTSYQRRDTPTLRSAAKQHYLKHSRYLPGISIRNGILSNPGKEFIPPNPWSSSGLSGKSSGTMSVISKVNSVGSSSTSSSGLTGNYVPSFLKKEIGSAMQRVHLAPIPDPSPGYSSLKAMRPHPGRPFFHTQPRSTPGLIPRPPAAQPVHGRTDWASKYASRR

[5] = target: TRKC (Homo sapiens, UniProt Q16288); conditions: 1 μM; Run 1, Run 2
[6] = target: T4, TSSK3/STK22C (Homo sapiens, UniProt Q96PN8); conditions: 1 μM; Run 1, Run 2
T4 sequence (Q96PN8 1-268): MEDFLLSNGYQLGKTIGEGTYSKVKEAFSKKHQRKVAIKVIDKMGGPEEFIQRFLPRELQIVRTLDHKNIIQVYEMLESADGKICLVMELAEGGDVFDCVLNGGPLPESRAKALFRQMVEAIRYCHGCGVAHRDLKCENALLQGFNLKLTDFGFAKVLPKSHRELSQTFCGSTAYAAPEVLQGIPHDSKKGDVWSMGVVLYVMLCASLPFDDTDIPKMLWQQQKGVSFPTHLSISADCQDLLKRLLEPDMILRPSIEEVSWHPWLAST

[7] = target: FGFR4 (Homo sapiens, UniProt P22455); assay: biochemical; conditions: read-out: % enzyme activity, 1 μM; Run 1, Run 2
Chain of FGFR4 (P22455 22-802): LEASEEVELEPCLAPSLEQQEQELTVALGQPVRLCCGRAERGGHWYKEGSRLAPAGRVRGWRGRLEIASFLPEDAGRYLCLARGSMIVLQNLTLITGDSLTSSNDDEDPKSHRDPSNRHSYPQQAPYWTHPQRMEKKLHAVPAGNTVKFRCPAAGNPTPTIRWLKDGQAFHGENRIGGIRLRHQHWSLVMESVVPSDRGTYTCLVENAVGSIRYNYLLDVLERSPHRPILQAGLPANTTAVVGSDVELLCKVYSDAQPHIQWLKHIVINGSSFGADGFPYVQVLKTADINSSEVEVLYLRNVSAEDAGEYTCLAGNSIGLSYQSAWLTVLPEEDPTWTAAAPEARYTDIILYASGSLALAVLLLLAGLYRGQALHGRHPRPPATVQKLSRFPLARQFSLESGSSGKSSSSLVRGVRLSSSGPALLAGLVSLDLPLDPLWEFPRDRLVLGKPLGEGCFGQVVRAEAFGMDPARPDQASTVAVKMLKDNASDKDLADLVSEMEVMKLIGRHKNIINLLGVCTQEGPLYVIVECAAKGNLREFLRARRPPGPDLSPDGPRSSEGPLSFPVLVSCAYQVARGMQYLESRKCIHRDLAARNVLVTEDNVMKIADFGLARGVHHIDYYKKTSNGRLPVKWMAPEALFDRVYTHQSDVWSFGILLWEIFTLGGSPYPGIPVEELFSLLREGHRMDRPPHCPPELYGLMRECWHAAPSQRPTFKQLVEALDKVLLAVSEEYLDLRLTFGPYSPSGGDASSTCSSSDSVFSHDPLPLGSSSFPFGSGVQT

T1 sequence (P07333 20-972): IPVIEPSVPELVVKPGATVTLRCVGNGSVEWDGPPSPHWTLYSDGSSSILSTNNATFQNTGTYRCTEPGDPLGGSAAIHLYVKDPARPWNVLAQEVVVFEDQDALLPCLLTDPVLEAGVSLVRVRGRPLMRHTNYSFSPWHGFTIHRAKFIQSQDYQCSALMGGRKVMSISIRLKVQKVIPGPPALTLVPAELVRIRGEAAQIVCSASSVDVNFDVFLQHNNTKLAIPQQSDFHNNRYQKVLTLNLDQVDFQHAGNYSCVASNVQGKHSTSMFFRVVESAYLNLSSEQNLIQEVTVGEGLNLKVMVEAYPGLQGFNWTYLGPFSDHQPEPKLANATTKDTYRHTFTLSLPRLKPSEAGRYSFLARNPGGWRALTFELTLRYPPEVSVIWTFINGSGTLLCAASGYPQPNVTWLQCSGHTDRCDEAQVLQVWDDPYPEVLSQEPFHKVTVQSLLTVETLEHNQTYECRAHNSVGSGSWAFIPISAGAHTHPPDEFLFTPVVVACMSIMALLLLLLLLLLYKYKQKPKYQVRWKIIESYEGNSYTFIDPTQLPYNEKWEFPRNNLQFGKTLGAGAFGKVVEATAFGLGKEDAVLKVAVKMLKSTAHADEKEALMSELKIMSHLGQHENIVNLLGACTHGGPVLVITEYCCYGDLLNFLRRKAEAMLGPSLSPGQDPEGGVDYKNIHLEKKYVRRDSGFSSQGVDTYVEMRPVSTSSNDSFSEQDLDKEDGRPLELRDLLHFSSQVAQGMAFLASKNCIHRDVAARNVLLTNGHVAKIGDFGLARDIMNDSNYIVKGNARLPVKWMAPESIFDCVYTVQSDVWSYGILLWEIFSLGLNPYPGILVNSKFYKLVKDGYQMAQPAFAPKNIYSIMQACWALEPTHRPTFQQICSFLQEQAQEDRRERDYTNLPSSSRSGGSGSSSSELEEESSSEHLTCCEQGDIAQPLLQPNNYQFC
Chain of TRKC (Q16288 32-839): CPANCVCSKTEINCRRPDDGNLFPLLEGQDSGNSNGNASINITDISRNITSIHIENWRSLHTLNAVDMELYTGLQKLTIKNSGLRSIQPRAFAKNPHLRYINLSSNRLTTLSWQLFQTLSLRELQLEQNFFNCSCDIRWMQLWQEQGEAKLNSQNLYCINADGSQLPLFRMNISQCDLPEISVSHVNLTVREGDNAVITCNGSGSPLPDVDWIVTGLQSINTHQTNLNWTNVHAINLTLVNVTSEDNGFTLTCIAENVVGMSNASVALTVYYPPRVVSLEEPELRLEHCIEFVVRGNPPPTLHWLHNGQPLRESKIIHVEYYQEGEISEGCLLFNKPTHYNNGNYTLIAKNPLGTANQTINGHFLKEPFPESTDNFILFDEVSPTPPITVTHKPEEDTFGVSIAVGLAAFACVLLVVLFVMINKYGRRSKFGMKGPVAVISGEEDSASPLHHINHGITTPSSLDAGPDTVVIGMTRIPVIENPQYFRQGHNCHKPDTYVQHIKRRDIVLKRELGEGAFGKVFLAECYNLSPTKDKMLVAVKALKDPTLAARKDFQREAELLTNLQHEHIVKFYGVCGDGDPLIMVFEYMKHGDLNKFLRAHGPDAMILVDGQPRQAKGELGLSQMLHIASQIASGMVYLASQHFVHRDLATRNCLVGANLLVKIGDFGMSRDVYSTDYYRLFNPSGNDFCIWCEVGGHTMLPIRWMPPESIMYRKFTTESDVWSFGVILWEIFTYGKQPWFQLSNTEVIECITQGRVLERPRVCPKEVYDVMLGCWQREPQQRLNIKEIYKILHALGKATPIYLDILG
Chain of CDK19/cyclin C (Q9BWU1 whole entry): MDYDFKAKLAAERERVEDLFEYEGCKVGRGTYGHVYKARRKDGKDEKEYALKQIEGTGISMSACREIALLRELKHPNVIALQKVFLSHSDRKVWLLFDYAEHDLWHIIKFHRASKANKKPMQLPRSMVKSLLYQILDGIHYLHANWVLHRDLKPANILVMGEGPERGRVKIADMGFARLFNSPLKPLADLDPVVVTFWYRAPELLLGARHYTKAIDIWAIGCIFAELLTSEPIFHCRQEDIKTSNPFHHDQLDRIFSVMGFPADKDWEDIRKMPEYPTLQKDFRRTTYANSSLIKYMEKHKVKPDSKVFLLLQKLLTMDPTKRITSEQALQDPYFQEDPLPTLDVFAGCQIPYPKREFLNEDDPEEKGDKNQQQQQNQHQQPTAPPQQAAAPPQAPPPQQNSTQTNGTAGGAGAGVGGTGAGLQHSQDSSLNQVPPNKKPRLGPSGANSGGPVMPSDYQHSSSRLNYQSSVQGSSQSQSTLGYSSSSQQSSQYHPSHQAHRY
Chain of CDK19/cyclin C (P24863 whole entry partner): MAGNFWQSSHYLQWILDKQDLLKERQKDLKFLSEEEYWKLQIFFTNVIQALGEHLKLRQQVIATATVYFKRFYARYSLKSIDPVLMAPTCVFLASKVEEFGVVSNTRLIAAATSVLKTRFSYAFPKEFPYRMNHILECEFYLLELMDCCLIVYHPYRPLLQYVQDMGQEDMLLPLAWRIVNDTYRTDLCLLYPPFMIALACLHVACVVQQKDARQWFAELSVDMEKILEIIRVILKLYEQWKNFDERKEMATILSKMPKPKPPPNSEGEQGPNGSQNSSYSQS

| Compound | % enzyme activity [1] | remaining activity at 1 µM [1] | % enzyme activity [2] | % enzyme activity [3] | % enzyme activity [4] | % enzyme activity [5] | % enzyme activity [6] | remaining activity at 1 µM [7] |
| --- | --- | --- | --- | --- | --- | --- | --- | --- |
| COc1cc(-c2cncc(-c3ccc(N4CCN(C)CC4)cc3)c2C)cc(F)c1C(N)=O [Compound 26a, 2-Fluoro-6-methoxy-4-(4-methyl-5-(4-(4-methylpiperazin-1-yl)phenyl)pyridin-3-yl)benzamide] | 75.66% | 82.2% | 94.20% | 77.81% | 104.57% | 101.44% | 96.02% | 98.2% |
| COc1cc(-c2cncc(-c3ccc(N4C[C@@H](C)N(C)[C@@H](C)C4)cc3)c2C)cc(F)c1C(N)=O [Compound 26c, 2-Fluoro-6-methoxy-4-(4-methyl-5-(4-((3R,5S)-3,4,5-trimethylpiperazin-1-yl)phenyl)pyridin-3-yl)benzamide] | 78.83% | 79.5% | 96.09% | 85.09% | 95.60% | 97.50% | 95.64% | 99.6% |
